# Laboratory results: the supplement of paper PMC10307832
# Tests used:
# Assay in all cases: relative viability (nuclei count vs DMSO), 5 days (fraction); higher = more cells survive
# BEN = test system: BEN
# Outline: (§1)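 Cells from lung cancer lines were seeded into 1536-well plates and, one day later, dosed by pin tool. Treatments were either a single drug or a fixed dose of an anchor drug with five library-drug doses (not always all listed) in √10 steps. After 5 days, nuclei were stained in a one-step fixation (final 0.05% Triton X-100, 1% formaldehyde, 1 ug/ml Hoechst) and counted on 4× images, and relative viability is the treated-to-vehicle nuclei ratio, as the median of duplicate plates.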
# CAL-12T = test system: CAL-12T
# Outline: as §1
# COR-L23 = test system: COR-L23
# Outline: as §1
# HCC-366 = test system: HCC-366
# Outline: as §1
# LOU-NH91 = test system: LOU-NH91
# Outline: as §1
# LU99A = test system: LU99A
# Outline: as §1
# NCI-H1355 = test system: NCI-H1355
# Outline: as §1
# NCI-H1437 = test system: NCI-H1437
# Outline: as §1
# NCI-H1563 = test system: NCI-H1563
# Outline: as §1
# NCI-H1651 = test system: NCI-H1651
# Outline: as §1
# NCI-H1734 = test system: NCI-H1734
# Outline: as §1
# NCI-H1793 = test system: NCI-H1793
# Outline: as §1
# NCI-H1975 = test system: NCI-H1975
# Outline: as §1
# NCI-H2023 = test system: NCI-H2023
# Outline: as §1
# NCI-H2085 = test system: NCI-H2085
# Outline: as §1
# NCI-H358 = test system: NCI-H358
# Outline: as §1
# NCI-H441 = test system: NCI-H441
# Outline: as §1
# NCI-H460 = test system: NCI-H460
# Outline: as §1
# NCI-H838 = test system: NCI-H838
# Outline: as §1
# SK-LU-1 = test system: SK-LU-1
# Outline: as §1
smiles,measurement,setting,value
Nc1ccn([C@@H]2O[C@H](CO)[C@@H](O)[C@@H]2O)c(=O)n1 [Cytarabine] + C[C@]1(O)C[C@@H](c2nc(-c3ccc4ccc(-c5ccccc5)nc4c3)c3c(N)nccn32)C1 [Linsitinib] (partner 1 µM),relative viability,BEN; first compound 0.005 µM,0.616
same,relative viability,BEN; first compound 0.01581 µM,0.775
same,relative viability,BEN; first compound 0.05 µM,0.557
same,relative viability,BEN; first compound 0.1581 µM,0.423
same,relative viability,BEN; first compound 0.5 µM,0.307
same,relative viability,CAL-12T; first compound 0.005 µM,0.72
same,relative viability,CAL-12T; first compound 0.01581 µM,0.878
same,relative viability,CAL-12T; first compound 0.05 µM,0.747
same,relative viability,CAL-12T; first compound 0.1581 µM,0.39
same,relative viability,CAL-12T; first compound 0.5 µM,0.203
same,relative viability,COR-L23; first compound 0.005 µM,0.787
same,relative viability,COR-L23; first compound 0.01581 µM,0.806
same,relative viability,COR-L23; first compound 0.05 µM,0.552
same,relative viability,COR-L23; first compound 0.1581 µM,0.159
same,relative viability,COR-L23; first compound 0.5 µM,0.122
same,relative viability,HCC-366; first compound 0.005 µM,0.725
same,relative viability,HCC-366; first compound 0.01581 µM,0.393
same,relative viability,HCC-366; first compound 0.05 µM,0.178
same,relative viability,HCC-366; first compound 0.1581 µM,0.0468
same,relative viability,HCC-366; first compound 0.5 µM,0.0253
same,relative viability,LOU-NH91; first compound 0.005 µM,0.996
same,relative viability,LOU-NH91; first compound 0.01581 µM,0.904
same,relative viability,LOU-NH91; first compound 0.05 µM,0.82
same,relative viability,LOU-NH91; first compound 0.1581 µM,0.54
same,relative viability,LOU-NH91; first compound 0.5 µM,0.566
same,relative viability,LU99A; first compound 0.005 µM,0.621
same,relative viability,LU99A; first compound 0.01581 µM,0.577
same,relative viability,LU99A; first compound 0.05 µM,0.561
same,relative viability,LU99A; first compound 0.1581 µM,0.508
same,relative viability,LU99A; first compound 0.5 µM,0.47
same,relative viability,NCI-H1355; first compound 0.005 µM,0.788
same,relative viability,NCI-H1355; first compound 0.01581 µM,0.8
same,relative viability,NCI-H1355; first compound 0.05 µM,0.627
same,relative viability,NCI-H1355; first compound 0.1581 µM,0.451
same,relative viability,NCI-H1355; first compound 0.5 µM,0.32
same,relative viability,NCI-H1437; first compound 0.005 µM,0.746
same,relative viability,NCI-H1437; first compound 0.01581 µM,0.678
same,relative viability,NCI-H1437; first compound 0.05 µM,0.477
same,relative viability,NCI-H1437; first compound 0.1581 µM,0.19
same,relative viability,NCI-H1437; first compound 0.5 µM,0.147
same,relative viability,NCI-H1563; first compound 0.005 µM,1.14
same,relative viability,NCI-H1563; first compound 0.01581 µM,1.3
same,relative viability,NCI-H1563; first compound 0.05 µM,1.04
same,relative viability,NCI-H1563; first compound 0.1581 µM,1
same,relative viability,NCI-H1563; first compound 0.5 µM,0.769
same,relative viability,NCI-H1651; first compound 0.005 µM,0.916
same,relative viability,NCI-H1651; first compound 0.01581 µM,0.98
same,relative viability,NCI-H1651; first compound 0.05 µM,1.11
same,relative viability,NCI-H1651; first compound 0.1581 µM,0.468
same,relative viability,NCI-H1651; first compound 0.5 µM,0.327
same,relative viability,NCI-H1734; first compound 0.005 µM,0.512
same,relative viability,NCI-H1734; first compound 0.01581 µM,0.328
same,relative viability,NCI-H1734; first compound 0.05 µM,0.257
same,relative viability,NCI-H1734; first compound 0.1581 µM,0.141
same,relative viability,NCI-H1734; first compound 0.5 µM,0.128
same,relative viability,NCI-H1793; first compound 0.005 µM,0.941
same,relative viability,NCI-H1793; first compound 0.01581 µM,0.899
same,relative viability,NCI-H1793; first compound 0.05 µM,0.89
same,relative viability,NCI-H1793; first compound 0.1581 µM,0.732
same,relative viability,NCI-H1793; first compound 0.5 µM,0.391
same,relative viability,NCI-H1975; first compound 0.005 µM,0.97
same,relative viability,NCI-H1975; first compound 0.01581 µM,1.08
same,relative viability,NCI-H1975; first compound 0.05 µM,0.973
same,relative viability,NCI-H1975; first compound 0.1581 µM,0.764
same,relative viability,NCI-H1975; first compound 0.5 µM,0.356
same,relative viability,NCI-H2023; first compound 0.005 µM,0.492
same,relative viability,NCI-H2023; first compound 0.01581 µM,0.302
same,relative viability,NCI-H2023; first compound 0.05 µM,0.149
same,relative viability,NCI-H2023; first compound 0.1581 µM,0.0967
same,relative viability,NCI-H2023; first compound 0.5 µM,0.0876
same,relative viability,NCI-H2085; first compound 0.005 µM,0.677
same,relative viability,NCI-H2085; first compound 0.01581 µM,0.89
same,relative viability,NCI-H2085; first compound 0.05 µM,0.859
same,relative viability,NCI-H2085; first compound 0.1581 µM,0.585
same,relative viability,NCI-H2085; first compound 0.5 µM,0.55
same,relative viability,NCI-H358; first compound 0.005 µM,0.571
same,relative viability,NCI-H358; first compound 0.01581 µM,0.628
same,relative viability,NCI-H358; first compound 0.05 µM,0.494
same,relative viability,NCI-H358; first compound 0.1581 µM,0.248
same,relative viability,NCI-H358; first compound 0.5 µM,0.16
same,relative viability,NCI-H441; first compound 0.005 µM,0.467
same,relative viability,NCI-H441; first compound 0.01581 µM,0.476
same,relative viability,NCI-H441; first compound 0.05 µM,0.406
same,relative viability,NCI-H441; first compound 0.1581 µM,0.232
same,relative viability,NCI-H441; first compound 0.5 µM,0.122
same,relative viability,NCI-H460; first compound 0.005 µM,0.509
same,relative viability,NCI-H460; first compound 0.01581 µM,0.514
same,relative viability,NCI-H460; first compound 0.05 µM,0.231
same,relative viability,NCI-H460; first compound 0.1581 µM,0.0385
same,relative viability,NCI-H460; first compound 0.5 µM,0.0239
same,relative viability,NCI-H838; first compound 0.005 µM,1.07
same,relative viability,NCI-H838; first compound 0.01581 µM,1.01
same,relative viability,NCI-H838; first compound 0.05 µM,0.875
same,relative viability,NCI-H838; first compound 0.1581 µM,0.418
same,relative viability,NCI-H838; first compound 0.5 µM,0.295
same,relative viability,SK-LU-1; first compound 0.005 µM,0.954
same,relative viability,SK-LU-1; first compound 0.01581 µM,0.918
same,relative viability,SK-LU-1; first compound 0.05 µM,0.922
same,relative viability,SK-LU-1; first compound 0.1581 µM,0.476
same,relative viability,SK-LU-1; first compound 0.5 µM,0.39
